The numbers were not newly measured in patent US20140005280A1, “CARBOXYMETHYL STARCH AND CHITOSAN POLYELECTROLYTE COMPLEXES” (4413261 Canada Inc. (Spencer Canada), priority 2011, published 2014), which cites them from elsewhere.

The conditions of the data set: US Pharmacopeia, 2000.

Structures are written as SMILES.

For the molecule `CC(=O)Oc1ccccc1C(=O)O` [aspirin, acetylsalicylic acid], the solubility result was “slightly soluble in water”.
